Measured values from ChEMBL document CHEMBL1201862, “PubChem BioAssay data set” (2004).
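Following 48 hours of exposure in 96-well plates, responses at five concentrations were used to interpolate endpoints linearly. GI50 = concentration required for 50% inhibition of growth.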 The source made the active and inactive calls. Cut-off read from the data, not from the text of the source: active = GI50 up to about 1.1 µM and inactive = higher.

Legend:
Assay in all cases: NCI anticancer screen, dose series, 48 h
SF-268 = test system: SF-268
A498 = test system: A498
SR = test system: SR
HT-29 = test system: HT-29
M14 = test system: M14
HCT-116 = test system: HCT-116
HL-60 = test system: HL-60
MCF7 = test system: MCF7
MDA-MB-435 = test system: MDA-MB-435
DU-145 = test system: DU-145
HCC 2998 = test system: HCC 2998
U-251 = test system: U-251
HOP-92 = test system: HOP-92
OVCAR-8 = test system: OVCAR-8
MDA-N = test system: MDA-N
NCI-H522 = test system: NCI-H522
SF-295 = test system: SF-295
SK-MEL-28 = test system: SK-MEL-28
SN12C = test system: SN12C
Malme-3M = test system: Malme-3M

Structure (SMILES) | GI50 (SF-268) | GI50 (A498) | GI50 (SR) | GI50 (HT-29) | GI50 (M14) | GI50 (HCT-116) | GI50 (HL-60) | GI50 (MCF7) | GI50 (MDA-MB-435) | GI50 (DU-145) | GI50 (HCC 2998) | GI50 (U-251) | GI50 (HOP-92) | GI50 (OVCAR-8) | GI50 (MDA-N) | GI50 (NCI-H522) | GI50 (SF-295) | GI50 (SK-MEL-28) | GI50 (SN12C) | GI50 (Malme-3M)
COc1cc(C2SCC(=O)N2c2ccccc2Cl)cc(OC)c1OC (centres undefined) | > 100 µM (inactive) | > 100 µM (inactive) | 43.1 µM (inactive) | > 100 µM (inactive) | > 100 µM (inactive) | > 100 µM (inactive) | 37.8 µM (inactive) | 62.1 µM (inactive) | 23.7 µM (inactive) | > 100 µM (inactive) | > 100 µM (inactive) | > 100 µM (inactive) | > 100 µM (inactive) | > 100 µM (inactive) | 19.4 µM (inactive) | 65.8 µM (inactive) | > 100 µM (inactive) | > 100 µM (inactive) | > 100 µM (inactive) | 
COc1cccc2[nH]c(-c3ccccn3)nc12 | 72.4 µM (inactive) | > 100 µM (inactive) | > 100 µM (inactive) | > 100 µM (inactive) | > 100 µM (inactive) | > 100 µM (inactive) |  | > 100 µM (inactive) | > 100 µM (inactive) | > 100 µM (inactive) | > 100 µM (inactive) | > 100 µM (inactive) | > 100 µM (inactive) | > 100 µM (inactive) | > 100 µM (inactive) | 48.9 µM (inactive) | 52.6 µM (inactive) | > 100 µM (inactive) | > 100 µM (inactive) | > 100 µM (inactive)
COc1ccc2cc(NC(=O)Nn3cnnc3)ccc2c1 | > 100 µM (inactive) | > 100 µM (inactive) | > 100 µM (inactive) | > 100 µM (inactive) | > 100 µM (inactive) | > 100 µM (inactive) | > 100 µM (inactive) | > 100 µM (inactive) | > 100 µM (inactive) | > 100 µM (inactive) | > 100 µM (inactive) | > 100 µM (inactive) | > 100 µM (inactive) | > 100 µM (inactive) | > 100 µM (inactive) | > 100 µM (inactive) | > 100 µM (inactive) | > 100 µM (inactive) |  | > 100 µM (inactive)
c1ccc2c3c([nH]c2c1)C1CCCN1CC3 (centres undefined) | > 10 µM (inactive) | > 10 µM (inactive) | > 10 µM (inactive) | > 10 µM (inactive) | > 10 µM (inactive) |  | > 10 µM (inactive) | > 10 µM (inactive) | > 10 µM (inactive) | > 10 µM (inactive) | > 10 µM (inactive) | > 10 µM (inactive) | > 10 µM (inactive) | > 10 µM (inactive) | > 10 µM (inactive) | > 10 µM (inactive) | > 10 µM (inactive) | > 10 µM (inactive) | > 10 µM (inactive) | > 10 µM (inactive)
CCOc1ccc(/N=N/C2C(=O)N(C(=O)CC(=O)Nc3ccc(C)cc3)N=C2C)cc1 (centres undefined) | 22.3 µM (inactive) | 13.2 µM (inactive) | 14 µM (inactive) | 24 µM (inactive) | 52.7 µM (inactive) | 12.4 µM (inactive) | 13.1 µM (inactive) | 40.6 µM (inactive) | 2.94 µM (inactive) | 38.6 µM (inactive) | 19 µM (inactive) | 15.1 µM (inactive) | 16.7 µM (inactive) | 16.6 µM (inactive) | 2.7 µM (inactive) |  | 21.2 µM (inactive) | 30.8 µM (inactive) | 35.2 µM (inactive) | 47.5 µM (inactive)
O=[N+]([O-])c1cn[n+]([O-])c2ccccc12 | 4.59 µM (inactive) | 23.1 µM (inactive) | 0.403 µM (active) | 4.65 µM (inactive) | 2.87 µM (inactive) | 1.24 µM (inactive) | 1.17 µM (inactive) | 10.7 µM (inactive) | 13.8 µM (inactive) | 1.05 µM (active) | 1.7 µM (inactive) | 4.19 µM (inactive) | 12.7 µM (inactive) | 2.18 µM (inactive) | 13.6 µM (inactive) |  | 4.75 µM (inactive) | 10.4 µM (inactive) | 8.83 µM (inactive) | 15.4 µM (inactive)
